The record followed here is ChEMBL document CHEMBL3351221, “Synthetic derivatives of aromatic abietane diterpenoids and their biological activities” (Eur J Med Chem, 2014).

The structures appear in SMILES notation. Values after ≈ are worked out from the molar mass of the structure shown.

Data set [1] is described as follows: Cytotoxicity against human SKMES1 cells. Type of data set: functional, cell-based. Particulars: SK-MES-1.
Data set [2] deals with Mus musculus. The data set can be described thus: Gastroprotective activity in mouse assessed as reduction in HCl/EtOH-induced gastric lesions at 10 mg/kg. The class given is functional. Particulars: Stomach.
For data set [3], the system named is SMMC-7721. The data set can be described thus: Cytotoxicity against human SMMC7721 cells assessed as growth inhibition at 0.1 uM. Type of data set: functional.
The test system of a further data set is Enterococcus. Nature of the data set: Antimicrobial activity against Vancomycin-resistant Enterococcus. Type of data set: functional.
The test system of data set [4] is Staphylococcus aureus. The data set can be described thus: Antimicrobial activity against methicillin-resistant Staphylococcus aureus. The class given is functional.
The test system of a further data set is Pseudomonas fluorescens. The data set can be described thus: Antimicrobial activity against Pseudomonas fluorescens. Type of data set: functional.
For the next data set, the system named is Escherichia coli. Nature of the data set: Antimicrobial activity against Escherichia coli. Type of data set: functional.
Data set [5] concerns SMMC-7721. Nature of the data set: Cytotoxicity against human SMMC7721 cells assessed as growth inhibition at 0.1 uM after 72 hrs. The class given is functional. The settings on record: SMMC-7721, 72 h.
The test system of the next data set is Leishmania braziliensis. The data set can be described thus: Antimicrobial activity against Leishmania braziliensis. The class given is functional, organism-based.
In another data set the test system is Leishmania infantum. Nature of the data set: Antimicrobial activity against Leishmania infantum. Type of data set: functional, organism-based.
A further data set has as its system A549. Nature of the data set: Cytotoxicity against human A549 cells. Type of data set: functional, cell-based.
The nature of data set [6]: Cytotoxicity against human SKBR3 cells. Particulars: SK-BR-3. Type of data set: functional, cell-based.
The nature of data set [7]: Cytotoxicity against human AZ-521 cells. The class given is functional, cell-based.
Data set [8] can be described thus: Cytotoxicity against human HL60 cells. The settings on record: HL-60. Type of data set: functional, cell-based.
Data set [9] can be described thus: Antioxidant activity assessed as DPPH radical scavenging activity. The class given is physicochemical. A general note: Loss of DPPH colour is used to gauge radical scavenging.
A further data set has as its system superoxide anion radical. Nature of the data set: Antioxidant activity assessed as superoxide anion radical scavenging activity relative to untreated control.
The test system of the next data set is HepG2. The data set can be described thus: Cytotoxicity against human HepG2 cells. Type of data set: functional, cell-based.
Another data set deals with Fusarium graminearum. Nature of the data set: Antimicrobial activity against Fusarium graminearum assessed as inhibition of microbial growth at 50 ug/ml. The class given is functional.
The subject of another data set is Fusarium oxysporum. Nature of the data set: Antimicrobial activity against Fusarium oxysporum assessed as inhibition of microbial growth at 50 ug/ml. Type of data set: functional.
In data set [10] the test system is SMMC-7721. Nature of the data set: Cytotoxicity against human SMMC7721 cells. The class given is functional, cell-based.
In data set [11] the target is Fibroblast growth factor receptor 1 (Homo sapiens, UniProt P11362). The data set can be described thus: Inhibition of FGFR1 (unknown origin).
For data set [12], the system named is Mus musculus. The data set can be described thus: Gastroprotective activity in mouse assessed as reduction in HCl/EtOH-induced gastric lesions at 100 mg/kg. Type of data set: functional. The settings on record: Stomach.
For data set [13], the system named is Rattus norvegicus. Nature of the data set: Antiulcer activity in rat assessed as inhibition of secretion at 30 mg/kg, ip. Type of data set: functional. The settings on record: route intraperitoneal.
Data set [14] has as its system Rattus norvegicus. The data set can be described thus: Antiulcer activity in rat assessed as inhibition of pepsin activity at 100 mg/kg. Type of data set: functional.
Data set [15] has as its system Botryosphaeria berengeriana. The data set can be described thus: Antimicrobial activity against Physalospora pyricola assessed as inhibition of microbial growth at 50 ug/ml. Type of data set: functional.
Data set [16] is described as follows: Cytotoxicity against human PC3 cells. Type of data set: functional, cell-based. The settings on record: PC-3.
Data set [17] is described as follows: Cytotoxicity against human Hey-1B cells. Type of data set: functional, cell-based.
The target of another data set is Androgen receptor (Homo sapiens, UniProt P10275). The data set can be described thus: Binding affinity to androgen receptor (unknown origin).
The test system of the next data set is Bacillus subtilis. Nature of the data set: Antimicrobial activity against Bacillus subtilis. The class given is functional.
Data set [18] relates to Staphylococcus aureus. The data set can be described thus: Antimicrobial activity against Staphylococcus aureus. The class given is functional.
A further data set concerns EJ. The data set can be described thus: Cytotoxicity against human EJ cells. Type of data set: functional, cell-based. The settings on record: pooled result: one value given for 4 cell lines, strains, targets or settings.

Chain of Fibroblast growth factor receptor 1 (P11362 whole entry): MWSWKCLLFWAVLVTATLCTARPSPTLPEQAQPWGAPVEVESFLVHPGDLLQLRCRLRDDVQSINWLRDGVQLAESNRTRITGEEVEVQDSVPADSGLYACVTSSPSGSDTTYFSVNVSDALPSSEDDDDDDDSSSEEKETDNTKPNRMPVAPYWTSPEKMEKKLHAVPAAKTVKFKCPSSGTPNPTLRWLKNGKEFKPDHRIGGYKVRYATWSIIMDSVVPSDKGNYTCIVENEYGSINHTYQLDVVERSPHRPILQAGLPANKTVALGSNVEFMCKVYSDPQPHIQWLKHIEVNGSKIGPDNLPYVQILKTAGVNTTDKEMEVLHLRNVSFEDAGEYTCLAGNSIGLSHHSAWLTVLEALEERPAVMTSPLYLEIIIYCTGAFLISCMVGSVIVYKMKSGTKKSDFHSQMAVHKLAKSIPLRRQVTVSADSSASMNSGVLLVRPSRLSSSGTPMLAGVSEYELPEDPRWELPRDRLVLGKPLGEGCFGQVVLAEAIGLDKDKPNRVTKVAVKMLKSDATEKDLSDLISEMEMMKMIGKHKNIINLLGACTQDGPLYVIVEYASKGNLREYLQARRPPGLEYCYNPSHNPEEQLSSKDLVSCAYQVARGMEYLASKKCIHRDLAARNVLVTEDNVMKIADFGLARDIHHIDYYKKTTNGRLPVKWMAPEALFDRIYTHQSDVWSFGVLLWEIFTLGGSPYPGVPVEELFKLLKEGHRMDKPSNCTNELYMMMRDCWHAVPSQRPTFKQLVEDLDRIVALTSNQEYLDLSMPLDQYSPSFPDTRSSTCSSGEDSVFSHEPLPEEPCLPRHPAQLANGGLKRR
Chain of Androgen receptor (P10275 whole entry): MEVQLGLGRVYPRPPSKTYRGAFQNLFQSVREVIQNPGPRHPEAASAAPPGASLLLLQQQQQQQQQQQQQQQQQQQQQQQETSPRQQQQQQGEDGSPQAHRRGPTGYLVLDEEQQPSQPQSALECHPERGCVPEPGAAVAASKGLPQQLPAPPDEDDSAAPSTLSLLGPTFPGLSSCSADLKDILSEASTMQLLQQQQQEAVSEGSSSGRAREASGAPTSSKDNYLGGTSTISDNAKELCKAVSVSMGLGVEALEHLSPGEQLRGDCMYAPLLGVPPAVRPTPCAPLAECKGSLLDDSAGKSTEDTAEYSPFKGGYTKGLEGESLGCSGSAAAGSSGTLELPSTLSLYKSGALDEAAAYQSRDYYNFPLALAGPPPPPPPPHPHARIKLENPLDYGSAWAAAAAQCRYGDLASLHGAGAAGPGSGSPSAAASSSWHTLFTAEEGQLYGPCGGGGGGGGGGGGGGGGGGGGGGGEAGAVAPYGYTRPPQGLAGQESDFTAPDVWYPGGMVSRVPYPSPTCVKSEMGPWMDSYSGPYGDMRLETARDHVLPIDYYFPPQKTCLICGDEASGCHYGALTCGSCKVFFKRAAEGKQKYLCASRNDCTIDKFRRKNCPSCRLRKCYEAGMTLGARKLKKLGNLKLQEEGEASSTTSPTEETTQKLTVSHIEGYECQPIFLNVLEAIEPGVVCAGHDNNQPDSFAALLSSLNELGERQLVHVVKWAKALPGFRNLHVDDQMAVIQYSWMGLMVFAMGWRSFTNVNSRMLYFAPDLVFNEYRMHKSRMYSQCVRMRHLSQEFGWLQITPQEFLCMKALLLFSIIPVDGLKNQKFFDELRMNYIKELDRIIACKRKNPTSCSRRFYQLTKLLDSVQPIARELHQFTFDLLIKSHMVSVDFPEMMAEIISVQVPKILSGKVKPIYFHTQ

As to `CC(C)c1ccc2c(c1)CC[C@H]1[C@](C)(COC(=O)CCc3cn(-c4ccccc4)nn3)CCC[C@]21C`, half-maximal inhibition in data set [1] (IC50) was put at 6.1 µM.
As to `CCCOC(=O)[C@]12CCCC(C)(C)[C@@H]1CCc1cc(C(C)C)c(OC)c(OC(=O)CCC)c12`, in the data set on Mus musculus [2], the inhibition in vivo (commonly how much of the control response was suppressed) at 10 mg/kg was determined as 73%.
For the molecule `CC(C)c1ccc2c(c1)CC[C@H]1[C@](C)(CNC(c3ccc(C(F)(F)F)cc3)P(=O)(Oc3ccccc3)Oc3ccccc3)CCC[C@]21C` (stereo partly specified), in the data set with SMMC-7721 [3], the inhibition – broadly, the percentage by which the read-out fell short of the control – at 0.1 µM was determined as 79%.
Regarding `CC(C)c1cc2c(cc1O)[C@@]1(C)CCCC(C)(C)[C@@H]1[C@H](O)C2`, the MIC in the data set with Enterococcus and in the data set on Staphylococcus aureus [4] was 4 µg/mL (≈ 13.2 µM) in each case.
Turning to `CC(C)c1ccc2c(c1)CC[C@H]1[C@](C)(C(=O)N/N=C/c3cc(Cl)ccc3O)CCC[C@]21C`, the MIC against Pseudomonas fluorescens and against Escherichia coli was 3.9 µg/mL (≈ 8.61 µM) in each case.
As to `CCOP(=O)(OCC)C(NC[C@]1(C)CCC[C@]2(C)c3ccc(C(C)C)cc3CC[C@@H]12)c1ccc([N+](=O)[O-])cc1O` (stereo partly specified), the inhibition at 0.1 µM with SMMC-7721 [5] came to 99%.
As for `COC(=O)[C@@]1(C)CCC[C@]2(C)c3cc(O)c(C(C)(C)O)cc3CC[C@@H]12`, the 50% inhibitory concentration (IC50) in the data set with Leishmania braziliensis and with Leishmania infantum was 14 µM throughout.
Consider `CC(C)c1ccc2c(c1)CC[C@H]1[C@](C)(C(=O)N/N=C/c3ccc(Cl)c([N+](=O)[O-])c3)CCC[C@]21C`, for which the MIC in the data set on Pseudomonas fluorescens and with Escherichia coli was 3.9 µg/mL (≈ 8.09 µM) throughout.
With `COC(=O)[C@H](Cc1ccc(O)cc1)NC(=O)[C@]1(C)CCC[C@]2(C)c3ccc(C(C)C)cc3CC[C@@H]12`, the IC50 (as a rule, the concentration at which inhibition is half-maximal) was determined as 7.1 µM in the data set with A549, 8.1 µM in data set [6], 3.9 µM in data set [7] and 2.3 µM in [8].
Turning to `COc1cc([C@@H]2c3cc4c(cc3[C@@H](O[C@@H]3O[C@@H]5CO[C@@H](C)O[C@H]5[C@H](O)[C@H]3O)[C@H]3COC(=O)[C@H]23)OCO4)cc(OC)c1O` [ETOPOSIDE], the IC50 in data set [1] is 1.83 µM.
On to `CC(C)c1ccc2c(c1)C(=O)C[C@H]1[C@](C)(CNC(=O)c3cc(O)c(O)c(O)c3)CCC[C@]21C`, for which the IC50 in [9] was found to be 2 µg/mL (≈ 4.43 µM). Moreover, in the data set on superoxide anion radical, the “inhibition (INH)” value came to 38.18%.
For `CC(C)c1cc2c(cc1[N+](=O)[O-])[C@@]1(C)CCC[C@@](C)(CNC(=O)c3ccccc3)[C@@H]1CC2=O`, half-maximal inhibition with HepG2 (IC50) was put at 67.9 µg/mL (≈ 151 µM).
As to `CC(C)c1ccc2c(c1)CC[C@H]1[C@](C)(c3nnc4s/c(=C\c5ccc(O)cc5)c(=O)n34)CCC[C@]21C`, the inhibition at 50 µg/mL with Fusarium graminearum was 70.9%.
Take `CC(C)c1ccc2c(c1)CC[C@H]1[C@](C)(c3nnc4s/c(=C\c5ccccc5)c(=O)n34)CCC[C@]21C`: in the data set on Fusarium oxysporum, the inhibition at 50 µg/mL turned out to be 51.9%.
Take `CC(C)c1cc2c(cc1O)[C@@]1(C)CCC[C@](C)(CO)[C@@H]1CC2`: the IC50 in the data set on Leishmania braziliensis and with Leishmania infantum was 14 µM in each case.
With `CC(C)c1ccc2c(c1)CC[C@H]1[C@](C)(NC(N)=O)CCC[C@]21C`, the results for the IC50 with SMMC-7721 [10] and in the data set on HepG2 were 8.8 µM and 1.21 µg/mL (≈ 3.85 µM), respectively.
In the case of `CC(C)c1ccc2c(c1)CC[C@H]1[C@](C)(CNC(c3ccc(F)cc3)P(=O)(Oc3ccccc3)Oc3ccccc3)CCC[C@]21C` (stereo partly specified), the inhibition at 0.1 µM in the data set with SMMC-7721 [3] is 75%.
`CC(C)c1cc2c(c(O)c1O)[C@@]1(C)CCCC(C)(C)[C@@H]1CC2=O` [DEMETHYLCRYPTOJAPONOL]: the MIC against Enterococcus and in the data set with Staphylococcus aureus [4] was 4 µg/mL (≈ 12.6 µM) each time.
`CC(C)c1ccc2c(c1)CC[C@H]1[C@](C)(C/N=C/c3c(O)ccc4ccccc34)CCC[C@]21C` registered a concentration for half-maximal inhibition (IC50) in data set [11] of 1.2 µM.
With `CC(C)c1ccc2c(c1)CC[C@H]1[C@](C)(C(=O)O)CCC[C@]21C` [DEHYDROABIETIC ACID], the inhibition in vivo at 100 mg/kg in the data set on Mus musculus [12] amounted to 59%. Also, the inhibition in vivo at 30 mg/kg with Rattus norvegicus [13] was determined as 22%.
For the molecule `COC(=O)[C@@]1(C)CCC[C@]2(C)c3cc(O)c(C(C)C)cc3CC[C@@H]12`, the half-maximal inhibitory concentration (IC50) in the data set on Leishmania braziliensis and in the data set on Leishmania infantum was 14 µM each time.
Take `CC(C)c1cc2c(cc1O)[C@@]1(C)CCCC(C)(C)[C@@H]1C(=O)C2`: the MIC in the data set on Enterococcus and against Staphylococcus aureus [4] was 4 µg/mL (≈ 13.3 µM) throughout.
In the case of `Cc1c(OCC(F)(F)F)ccnc1C[S+]([O-])c1nc2ccccc2[nH]1` (stereo unspecified) [LANSOPRAZOLE], the inhibition in vivo at 10 mg/kg in the data set with Mus musculus [2] is 64%.
In the case of `CC(C)c1cc2c(cc1S(=O)(=O)[O-])[C@@]1(C)CCC[C@@](C)(C(=O)[O-])[C@@H]1CC2.[Na+].[Na+]`, the “inhibition (INH)” value in the data set on Rattus norvegicus [14] turned out to be 92%.
With `CC(C)c1cc2c(c(O)c1O)[C@@]1(C)CCCC(C)(C)C1=CC2=O` [SALVINOLONE], the MIC in the data set on Enterococcus and in the data set with Staphylococcus aureus [4] was 4 µg/mL (≈ 12.7 µM) throughout.
For the molecule `COc1ccc(/C=c2\sc3nnc([C@]4(C)CCC[C@]5(C)c6ccc(C(C)C)cc6CC[C@@H]45)n3c2=O)cc1`, the inhibition at 50 µg/mL in [15] was 56.8%.
Consider `O=C1O[C@H]([C@@H](O)CO)C(O)=C1O` [ASCORBIC ACID], for which, in [9], the half-maximal inhibitory concentration (IC50) was found to be 236 µg/mL (≈ 1340 µM).
With `CC(C)c1cc2c(cc1S(=O)(=O)O)[C@@]1(C)CCC[C@@](C)(C(=O)O)[C@@H]1CC2`, the inhibition in vivo at 100 mg/kg in the data set with Rattus norvegicus [14] (Rattus norvegicus) is 92%.
`CC(C)c1ccc2c(c1)C(=O)C[C@H]1[C@](C)(CNC(=O)c3ccccc3)CCC[C@]21C`: the half-inhibitory concentration (IC50) in data set [16] stood at 5.7 µg/mL; in data set [17], 11.3 µg/mL (≈ 28 µM); on Androgen receptor, 83.8 µM.
Consider `CC(C)c1ccc2c(c1)CC[C@H]1[C@](C)(C(=O)N/N=C/c3ccc([N+](=O)[O-])o3)CCC[C@]21C`, for which the minimal inhibitory concentration (MIC) (commonly the smallest concentration in the dilution series that meets the test's criterion for growth inhibition) was 3.9 µg/mL (≈ 8.91 µM) in the data set with Pseudomonas fluorescens, 1.9 µg/mL (≈ 4.34 µM) against Bacillus subtilis, 3.9 µg/mL (≈ 8.91 µM) with Escherichia coli and 1.9 µg/mL (≈ 4.34 µM) against Staphylococcus aureus [18].
On to `C=CC1CN2CCC1CC2C(NC(=S)NC[C@]1(C)CCC[C@]2(C)c3ccc(C(C)C)cc3CC[C@@H]12)c1ccnc2ccc(OC)cc12` (stereo partly specified), for which the IC50 (in [16]; with EJ) was 2.07 µM each time.
On to `COC(=O)[C@]12CCCC(C)(C)[C@@H]1CCc1cc(C(C)C)c(OC(=O)Cc3cc4ccccc4[nH]3)c(OC(=O)Cc3cc4ccccc4[nH]3)c12`, for which the inhibition in vivo at 10 mg/kg in the data set on Mus musculus [2] was 73%.
In the case of `NCC[C@H](O)C(=O)N[C@@H]1C[C@H](N)[C@@H](O[C@H]2O[C@H](CN)[C@@H](O)[C@H](O)[C@H]2O)[C@H](O)[C@H]1O[C@H]1O[C@H](CO)[C@@H](O)[C@H](N)[C@H]1O` [AMIKACIN], the MIC in the data set on Bacillus subtilis and against Staphylococcus aureus [18] was 0.9 µg/mL (≈ 1.54 µM) each time.
Consider `COC(=O)[C@]12CCCC(C)(C)[C@@H]1CCc1cc(C(C)C)c(OC(=O)c3ccccc3)c(OC(=O)c3ccccc3)c12`, for which, in the data set with Mus musculus [2], the inhibition in vivo at 10 mg/kg is 73%.
